Results on 39 compounds are retold here after US7294648B2, “Anthranyl derivatives having an anticholecystokinin activity (anti-cck-1), a process for their preparation, and pharmaceutical use thereof” (Rottapharm S.p.A., priority 2002, dated 2007).

Each structure is given as a SMILES string.

This experiment addresses T1, CCK-1 receptors (Rattus norvegicus, UniProt P30551).
T1 construct: The pancreatic acini obtained from the outbred male rat pancreas of the Sprague Dawley strain; from tissue; host or cells: isolated pancreatic acini of male Sprague Dawley rats
T1 sequence (P30551 1-444): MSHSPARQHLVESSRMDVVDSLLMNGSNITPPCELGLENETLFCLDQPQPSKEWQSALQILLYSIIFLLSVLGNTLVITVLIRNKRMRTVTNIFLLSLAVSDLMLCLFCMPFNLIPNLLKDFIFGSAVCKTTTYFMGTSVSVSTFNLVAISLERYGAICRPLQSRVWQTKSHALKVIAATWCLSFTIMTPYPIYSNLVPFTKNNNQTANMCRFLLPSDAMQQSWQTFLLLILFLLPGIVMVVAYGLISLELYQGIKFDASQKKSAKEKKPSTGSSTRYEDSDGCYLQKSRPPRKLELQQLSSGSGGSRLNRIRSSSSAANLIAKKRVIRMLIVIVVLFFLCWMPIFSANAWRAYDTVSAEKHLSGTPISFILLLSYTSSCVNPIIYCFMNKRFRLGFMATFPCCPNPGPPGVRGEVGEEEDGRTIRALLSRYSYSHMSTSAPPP
The experiment in a line: Inhibition of binding of [125I]-BH-CCK-8 to isolated rat pancreatic acini. The settings on record: 30 minutes at 37° C.; at least 3 experiments; read-out: IC50, inhibition of binding of [125I]-BH-CCK-8 to isolated rat pancreatic acini. The method, then:
The pancreatic acini obtained from the outbred male rat pancreas of the Sprague Dawley strain, were incubated in the presence of radioactive tracers and the compound studied for 30 minutes at 37° C. After having discarded the supernatant, the radioactivity associated with the pellet was determined with a liquid scintillator. The specific binding was determined as the difference between the binding in the absence and in the presence of CCK-8, 1.10^−6M. […] The values of IC50 reported were calculated with the […] of a set of at least 3 experiences for each compound studied.

On to `O=C(Nc1ccccc1C(=O)N[C@H](Cc1ccccc1)C(=O)O)c1cc2ccccc2[nH]1` [Compound 2, 2 (R)-{2-[(1H-indol-2-carbonyl)amino]-benzoylamino}-3-phenyl-propionic acid], for which the IC50 – broadly, the concentration at which inhibition is half-maximal – is 110 nM.
The result for `CC(NC(=O)c1ccccc1NC(=O)c1cc2ccccc2[nH]1)C(=O)O` (stereo not drawn) [Compound 34] reads 1960 nM.
The result for `O=C(Nc1ccccc1C(=O)NC(Cc1ccccc1)C(=O)O)c1cc2ccccc2s1` (stereo not drawn) [Compound 10] reads 780 nM; that for `Cc1ccccc1CC(NC(=O)c1ccccc1NC(=O)c1cc2ccccc2[nH]1)C(=O)O` (stereo not drawn) [Compound 11], 160 nM.
Then `O=C(Nc1ccccc1C(=O)N[C@@H](CCc1ccccc1)C(=O)O)c1cc2ccccc2[nH]1` [Compound 22], with 190 nM; and `COc1cccc(CC(NC(=O)c2ccccc2NC(=O)c2cc3ccccc3[nH]2)C(=O)O)c1` (stereo not drawn) [Compound 16], with 240 nM; and `O=C(Nc1ccccc1C(=O)NC(Cc1ccccc1)C(=O)O)c1cc2ccc(F)cc2[nH]1` (stereo not drawn) [Compound 7], with 160 nM.
For the compound `CCC(NC(=O)c1ccccc1NC(=O)c1cc2ccccc2n1C)C(=O)O` (stereo not drawn) [Compound 35], the IC50 was determined as 3080 nM.
The result for `CCCCC(NC(=O)c1ccccc1NC(=O)c1cc2ccccc2n1C)C(=O)O` (stereo not drawn) [Compound 37] reads 170 nM; that for `O=C(Nc1ccccc1C(=O)NC(Cc1ccccc1Cl)C(=O)O)c1cc2ccccc2[nH]1` (stereo not drawn) [Compound 13], 270 nM.
The result for `O=C(Nc1ccccc1C(=O)NC(CCc1ccc([N+](=O)[O-])cc1)C(=O)O)c1cc2ccccc2[nH]1` (stereo not drawn) [Compound 29] reads 120 nM.
The result for `O=C(Nc1ccccc1C(=O)NC(Cc1cccc(Cl)c1)C(=O)O)c1cc2ccccc2[nH]1` (stereo not drawn) [Compound 14] reads 280 nM.
With `O=C(Nc1ccccc1C(=O)NC(CCCC1CCCCC1)C(=O)O)c1cc2ccccc2[nH]1` (stereo not drawn) [Compound 50], the IC50 came out at 170 nM.
The result for `O=C(Nc1ccccc1C(=O)NC(CCCc1ccccc1)C(=O)O)c1cc2ccccc2[nH]1` (stereo not drawn) [Compound 24] reads 90 nM; that for `CC(C)CCC(NC(=O)c1ccccc1NC(=O)c1cc2ccccc2[nH]1)C(=O)O` (stereo not drawn) [Compound 43], 80 nM.
Then `O=C(Nc1ccc(Cl)cc1C(=O)NC(Cc1ccccc1)C(=O)O)c1cc2ccccc2[nH]1` (stereo not drawn) [Compound 4], with 410 nM; and `Cc1ccccc1CCC(NC(=O)c1ccccc1NC(=O)c1cc2ccccc2n1C)C(=O)O` (stereo not drawn) [Compound 27], with 30 nM; and `CC(C)CCCCC(NC(=O)c1ccccc1NC(=O)c1cc2ccccc2[nH]1)C(=O)O` (stereo not drawn) [Compound 45], with 140 nM.
The result for `O=C(Nc1ccccc1C(=O)NC(CSC12CC3CC(CC(C3)C1)C2)C(=O)O)c1cc2ccccc2[nH]1` (stereo not drawn) [Compound 53] reads 30 nM.
In the case of `Cc1ccc(CC(NC(=O)c2ccccc2NC(=O)c2cc3ccccc3[nH]2)C(=O)O)cc1` (stereo not drawn) [Compound 12], the half-maximal inhibitory concentration (IC50) worked out at 370 nM.
Regarding `O=C(Nc1ccccc1C(=O)NC(CCC1CCCCC1)C(=O)O)c1cc2ccccc2[nH]1` (stereo not drawn) [Compound 49], the concentration for half-maximal inhibition (IC50) is 40 nM.
Consider `CC(C)CCCC(NC(=O)c1ccccc1NC(=O)c1cc2ccccc2[nH]1)C(=O)O` (stereo not drawn) [Compound 44], for which the IC50 came to 40 nM.
For `O=C(Nc1ccccc1C(=O)NC(CSc1ccccc1)C(=O)O)c1cc2ccccc2[nH]1` (stereo not drawn) [Compound 52], the half-inhibitory concentration (IC50) was determined as 620 nM.
For the compound `O=C(Nc1ccccc1C(=O)NC(Cc1ccc(F)cc1)C(=O)O)c1cc2ccccc2[nH]1` (stereo not drawn) [Compound 19], the IC50 stood at 180 nM.
Then `CCCC(NC(=O)c1ccccc1NC(=O)c1cc2ccccc2n1C)C(=O)O` (stereo not drawn) [Compound 36], with 210 nM; and `CCCCCCCC(NC(=O)c1ccccc1NC(=O)c1cc2ccccc2[nH]1)C(=O)O` (stereo not drawn) [Compound 40], with 240 nM; and `O=C(Nc1ccccc1C(=O)NC(Cc1c(Cl)cccc1Cl)C(=O)O)c1cc2ccccc2[nH]1` (stereo not drawn) [Compound 15], with 1410 nM.
Then `CSCCC(NC(=O)c1ccccc1NC(=O)c1cc2ccccc2[nH]1)C(=O)O` (stereo not drawn) [Compound 51], with 40 nM; and `O=C(Nc1ccccc1C(=O)NC(Cc1ccccc1[N+](=O)[O-])C(=O)O)c1cc2ccccc2[nH]1` (stereo not drawn) [Compound 17], with 160 nM; and `O=C(NC(Cc1ccccc1)C(=O)O)c1ccccc1NC(=O)c1c[nH]c2ccccc12` (stereo not drawn) [Compound 55], with 1950 nM.
Take `O=C(Nc1ccccc1C(=O)NC(Cc1ccc([N+](=O)[O-])cc1)C(=O)O)c1cc2ccccc2[nH]1` (stereo not drawn) [Compound 18]: the IC50 stood at 430 nM.
For the compound `O=C(Nc1ccccc1C(=O)N[C@@H](Cc1ccccc1)C(=O)O)c1cc2ccccc2[nH]1` [Compound 3, 2(S)-{2-[(1H-indol-2-carbonyl)amino]-benzoylamino}-3-phenyl-propionic acid], the IC50 turned out to be 7130 nM.
The result for `O=C(Nc1ccccc1C(=O)NC(Cc1ccccc1)C(=O)O)c1cc2cccc(F)c2[nH]1` (stereo not drawn) [Compound 8] reads 90 nM; that for `O=C(Nc1ccccc1C(=O)NC(Cc1ccccc1)C(=O)O)c1cc2ccccc2[nH]1` (racemic) [Compound 1, 2 (R,S)-{2-[(1H-indol-2-carbonil)amino]-benzoilamino}-3-phnyl-propionic acid], 240 nM; that for `Cn1c(C(=O)Nc2ccccc2C(=O)NC(Cc2ccccc2)C(=O)O)cc2ccccc21` (stereo not drawn) [Compound 5], 170 nM.
In the case of `O=C(Nc1ccccc1C(=O)NC(C(=O)O)c1ccccc1)c1cc2ccccc2[nH]1` (stereo not drawn) [Compound 33], the concentration for half-maximal inhibition (IC50) turned out to be 260 nM.
Then `O=C(Nc1ccccc1C(=O)NC(Cc1ccccc1)C(=O)O)c1cc2ccccc2o1` (stereo not drawn) [Compound 9], with 520 nM.
`CC(C)CC(NC(=O)c1ccccc1NC(=O)c1cc2ccccc2[nH]1)C(=O)O` (stereo not drawn) [Compound 42]: the IC50 worked out at 60 nM.
On to `O=C(Nc1ccccc1C(=O)NC(CCc1ccccc1[N+](=O)[O-])C(=O)O)c1cc2ccccc2[nH]1` (stereo not drawn) [Compound 28], for which the IC50 was 120 nM.
